Results as given in patent publication US20140088085A1, “Substituted Benzoazepines As Toll-Like Receptor Modulators” (ARRAY BIOPHARMA, INC, priority 2011, published 2014).
Where two headings read alike, the source gives them in different places.

Target: T1, hTLR8 (Homo sapiens, UniProt Q9NR97)
T1 construct: host or cells: HEK293 cells stably transfected with hTLR8
T1 sequence (Q9NR97 27-1041): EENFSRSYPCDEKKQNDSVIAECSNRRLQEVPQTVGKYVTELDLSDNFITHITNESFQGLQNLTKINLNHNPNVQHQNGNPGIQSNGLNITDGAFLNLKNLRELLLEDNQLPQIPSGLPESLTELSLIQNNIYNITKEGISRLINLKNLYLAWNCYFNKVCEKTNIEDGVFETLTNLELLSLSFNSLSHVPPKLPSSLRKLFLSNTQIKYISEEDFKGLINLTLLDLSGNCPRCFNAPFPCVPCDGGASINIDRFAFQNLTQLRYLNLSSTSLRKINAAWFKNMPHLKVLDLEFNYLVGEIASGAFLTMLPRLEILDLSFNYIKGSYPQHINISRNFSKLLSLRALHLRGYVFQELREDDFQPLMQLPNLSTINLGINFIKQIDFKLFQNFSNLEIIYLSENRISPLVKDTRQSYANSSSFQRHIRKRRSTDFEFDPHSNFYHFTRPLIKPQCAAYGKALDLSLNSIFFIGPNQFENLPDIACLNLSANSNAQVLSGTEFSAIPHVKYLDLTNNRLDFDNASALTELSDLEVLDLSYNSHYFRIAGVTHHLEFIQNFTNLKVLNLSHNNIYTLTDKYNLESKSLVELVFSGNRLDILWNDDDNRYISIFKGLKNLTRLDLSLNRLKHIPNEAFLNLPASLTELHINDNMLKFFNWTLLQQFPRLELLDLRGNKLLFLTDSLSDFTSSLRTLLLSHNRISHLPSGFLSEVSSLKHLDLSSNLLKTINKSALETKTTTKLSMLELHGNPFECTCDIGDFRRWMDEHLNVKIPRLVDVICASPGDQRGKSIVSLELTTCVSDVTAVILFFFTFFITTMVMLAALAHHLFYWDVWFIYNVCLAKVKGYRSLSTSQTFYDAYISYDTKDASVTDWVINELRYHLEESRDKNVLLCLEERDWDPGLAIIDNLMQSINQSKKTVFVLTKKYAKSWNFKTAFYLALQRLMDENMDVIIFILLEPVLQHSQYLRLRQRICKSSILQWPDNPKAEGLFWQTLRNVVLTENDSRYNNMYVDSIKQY
Test: HEK-293 hTLR8 transfectant NF-κB SEAP reporter antagonist assay
Assay type: cell-based
Conditions: for inhibition at 25 µM: HEK293, TLR8 antagonist activity at 25 μM (in some cases assessed at lower concentrations)
Method: The HEK-293 hTLR transfectant assay employs HEK293 cells stably transfected with various hTLRs and transiently co-transfected with a plasmid containing an NF-κB driven secreted embryonic alkaline phosphate (SEAP) reporter gene. Stimulation of TLRs activates their downstream signaling pathways and induces nuclear translocation of the transcription factor NF-κB. Reporter gene activity is then measured using a spectrophotometric assay.
For the TLR8 antagonist assays, cells are transiently transfected with the reporter gene on Day 1 per the supplier's instructions. Antagonist compounds are added to the cultures on Day 2 followed by addition of a TLR8 agonist approximately 2 hours later. Cultures are incubated overnight and SEAP activity is measured on Day 3.
In a typical assay, 50,000 HEK239 hTLR8 cells are seeded per culture well and transiently transfected with the SEAP reporter gene. Antagonists are added to cultures in culture medium and […] DMSO over a concentration range of 0.1 nanomolar to 10 micromolar. TLR8 agonists are added to cultures 2 hours later at a fixed concentration (e.g., 1 micromolar or 10 micromolar of Compound A) and cultures are then incubated for 16-24 hrs at 37° C. in a humidified CO incubator. Antagonists are also evaluated for activity in the absence of agonist.
TLR8 antagonist activity at 25 μM is presented in Table 2, where + denotes a % inhibition of 20-39, ++ denotes a % inhibition of 40-59, +++ denotes a % inhibition of 60-79 and ++++ denotes a % inhibition of 80-99. In some cases, antagonist activity was assessed at lower concentrations, for example, at 8.3, 2.8, or less than 1 μM.
TLR8 antagonist activity was measured in a hTLR8 assay format, measuring IC50 values. Compounds were incubated with hTLR8 reporter cells for two hours, then 1 μM Compound A was added to induce TLR8 overnight. IC50 were then calculated.

[1] = hTLR8 reporter cells, 2 h preincubation, then 1 μM Compound A overnight, read-out: IC50
[2] = IC50, nM, vs. VTX-378 1 μM, agonist VTX-378 at 1 μM
[3] = IC50, nM, vs. VTX-378 10 μM, agonist VTX-378 at 10 μM
[4] = agonist VTX-378 at 0.5 μM, read-out: IC50, nM, vs. VTX-378 0.5 μM

Structure (SMILES)	inhibition at 25 µM	IC50 [2]	IC50 [3]	further results
CCCN(CCC)C(=O)C1=Cc2cc(OC)c(-c3ccc(C(=O)N(CCC)CCC)cc3)cc2N=C(N)C1 [Compound 12, (1E,4E)-2-Amino-8-(4-(dipropylcarbamoyl)phenyl)-7-methoxy-N,N-dipropyl-3H-benzo[b]azepine-4-carboxamide]	–	–	–	IC50 [1]: 1000 to 5000 nM
CCCN(CCCO)C(=O)C1=Cc2cc(OC)c(-c3ccc(C(=O)N4CCCC4)cc3)cc2N=C(N)C1 [Compound 25, (1E,4E)-2-Amino-N-(3-hydroxypropyl)-7-methoxy-N-propyl-8-(4-(pyrrolidine-1-carbonyl)phenyl)-3H-benzo[b]azepine-4-carboxamide]	20 to 39%	–	–	–
CCCN(CCC)C(=O)C1=Cc2ccc(-c3ccc(C(=O)N4CCCC4)cc3)cc2N=C(NN)C1 [Compound 33, (1E,4E)-2-Hydrazinyl-N,N-dipropyl-8-(4-(pyrrolidine-1-carbonyl)phenyl)-3H-benzo[b]azepine-4-carboxamide]	80 to 99%	–	–	IC50 [1]: 1000 to 5000 nM
CCCN(CCCO)C(=O)C1=Cc2ccc(-c3ccc(C(=O)N4CCCC4)cc3)cc2N=C(NC)C1 [Compound 46, (1E,4E)-N-(3-Hydroxypropyl)-2-(methylamino)-N-propyl-8-(4-(pyrrolidine-1-carbonyl)phenyl)-3H-benzo[b]azepine-4-carboxamide]	40 to 59%	–	–	–
CCCN(CCC)C(=O)C1=Cc2cc(OC)c(-c3ccc(C(=O)N4CCCC4)cc3)cc2N=C(N)C1 [Compound 65, (1E,4E)-2-Amino-7-methoxy-N,N-dipropyl-8-(4-(pyrrolidine-1-carbonyl)phenyl)-3H-benzo[b]azepine-4-carboxamide]	60 to 79%	–	–	IC50 [1]: 5000 to 10000 nM
CCCN(CCC)C(=O)C1=Cc2cc(OC)ccc2N=C(N)C1 [Compound 70, (1E,4E)-2-amino-7-methoxy-N,N-dipropyl-3H-benzo[b]azepine-4-carboxamide]	40 to 59%	–	–	–
CCOC(=O)C1=Cc2cc(OCc3ccccn3)ccc2N=C(N)C1 [Compound 74, (1E,4E)-ethyl 2-amino-7-(pyridin-2-ylmethoxy)-3H-benzo[b]azepine-4-carboxylate]	60 to 79%	–	–	IC50 [1]: 1000 to 5000 nM
CCOC(=O)C1=Cc2cc(OC)c(-c3ccc(C(=O)N4CCCC4)cc3)cc2N=C(N)C1 [Compound 76, (1E,4E)-ethyl 2-amino-7-methoxy-8-(4-(pyrrolidine-1-carbonyl)phenyl)-3H-benzo[b]azepine-4-carboxylate]	80 to 99%	–	–	IC50 [1]: ≥ 10000 nM
CCOC(=O)N1Cc2ccc(-c3ccc(C(=O)N4CCCC4)cc3)cc2N=C(N)C12CC2 [Compound 88, (E)-Ethyl 2-amino-8-(4-(pyrrolidine-1-carbonyl)phenyl)spiro[benzo[e][1,4]diazepine-3,1′-cyclopropane]-4(5H)-carboxylate]	20 to 39%	–	–	IC50 [1]: 5000 to 10000 nM
CCOC(=O)C1=Cc2ccc(-c3ccc(C(=O)N4CCCC4)cc3)cc2N2CCN=C2C1 [Compound 90, (E)-ethyl 9-(4-(pyrrolidine-1-carbonyl)phenyl)-2,4-dihydro-1H-benzo[f]imidazo[1,2-a]azepine-5-carboxylate]	60 to 79%	–	–	–
CCOC(=O)C1=Cc2cc(-c3ccc(C(=O)N4CCCC4)cc3)ccc2-n2ccnc2C1 [Compound 2919]	–	≥ 10000 nM	≥ 10000 nM	–
CCOC(=O)C1=Cc2cc(-c3ccc(C(=O)N4CCCC4)cc3)ccc2N=C(NC)C1 [Compound 2922]	–	1000 to 10000 nM	≥ 10000 nM	–
CCOC(=O)C1=Cc2cc(-c3ccc(C(=O)N4CCCC4)cc3)ccc2N=C(NN(C)C)C1 [Compound 2926]	–	1000 to 10000 nM	≥ 10000 nM	–
CCOC(=O)N1CC(N)=Nc2ccc(-c3ccc(C(=O)N4CCCC4)cc3)cc2C1 [Compound 2954]	–	≥ 10000 nM	≥ 10000 nM	–
CCOC(=O)C1=Cc2cc(-c3ccc(C(=O)N4CCCC4)cc3)ccc2N=C(NN)C1 [Compound 2962]	–	≥ 10000 nM	≥ 10000 nM	–
CCOC(=O)C1=Cc2cc(-c3ccc(C(=O)N4CCCC4)cc3)ccc2N2CCN=C2C1 [Compound 2966]	–	≥ 10000 nM	≥ 10000 nM	–
CC(C)OC(=O)C1=Cc2cc(-c3ccc(C(=O)N4CCCC4)cc3)ccc2N=C(N)C1 [Compound 2984]	–	< 1000 nM	1000 to 10000 nM	–
CCOC(=O)N1Cc2cc(-c3ccc(C(=O)N4CCCC4)cc3)ccc2N=C(N)C12CC2 [Compound 3020]	–	≥ 10000 nM	≥ 10000 nM	–
CCOC(=O)C1=Cc2cc(-c3ccc(C(=O)N4CCCC4)cc3)ccc2N=C(N)C12CC2 [Compound 3260]	–	< 1000 nM	–	IC50 (IC50, nM, vs. 3M002 10 μM, agonist 3M002 at 10 μM): < 1000 nM; IC50 [4]: < 1000 nM

The next lines start with results.

inhibition at 25 µM	IC50 [2]	IC50 [3]	Structure (SMILES)	further results
20 to 39%	–	–	CCCN(CCCO)C(=O)C1=Cc2ccc(-c3ccc(C(=O)N4CCCC4)cc3)cc2N=C(NCCN(C)C)C1 [Compound 47, (1E,4E)-2-(2-(Dimethylamino)ethylamino)-N-(3-hydroxypropyl)-N-propyl-8-(4-(pyrrolidine-1-carbonyl)phenyl)-3H-benzo[b]azepine-4-carboxamide]	–
80 to 99%	–	–	CCOC(=O)C1=Cc2cc(-c3ccc(C(=O)N4CCCC4)cc3)ccc2N=C(N)C1 [Compound 63, (1E,4E)-Ethyl 2-amino-7-(4-(pyrrolidine-1-carbonyl)phenyl)-3H-benzo[b]azepine-4-carboxylate]	IC50 [1]: < 1000 nM
–	≥ 10000 nM	≥ 10000 nM	CCOC(=O)C1=Cc2cc(-c3ccc(C(=O)N4CCCC4)cc3)ccc2N=C(N(C)C)C1 [Compound 2929]	–
–	< 1000 nM	1000 to 10000 nM	COC(=O)C1=Cc2cc(-c3ccc(C(=O)N4CCCC4)cc3)ccc2N=C(N)C1 [Compound 2931]	–
–	≥ 10000 nM	≥ 10000 nM	CCOC(=O)C1=Cc2cc(-c3ccc(C(=O)N4CCCC4)cc3)ccc2-n2cnnc2C1 [Compound 2976]	–
–	< 1000 nM	≥ 10000 nM	CN(C)C(=O)C1=Cc2cc(-c3ccc(C(=O)N4CCCC4)cc3)ccc2N=C(N)C1 [Compound 2986]	–
–	≥ 10000 nM	≥ 10000 nM	CCOC(=O)C1=Cc2cc(-c3ccc(C(=O)N4CCCC4)cc3)ccc2-n2c(n[nH]c2=O)C1 [Compound 3000]	–
–	< 1000 nM	–	CCOC(=O)C1=Cc2cc(-c3ccc(C(=O)N4CCCC4)cc3)ccc2N=C(N)C1C (stereo not shown) [Compound 3173]	IC50 [4]: < 1000 nM
